Results: paper PMC11773557, “NADPH-Independent Fluorescent Probe for Live-Cell Imaging of Heme Oxygenase-1” (ACS Sensors, 2025)
Where a SMILES comes first, the peptide text is derived from it. The star is where a group is joined. NBD = O=[N+]([O-])c1ccc(*)c2nonc12; Ahx = NCCCCCC(=O)O

Columns and labels:
[1] = tested on: HO-1 levels in live A549 cells; assay: Fluorescence imaging of HO-1 levels with NBD-P5 in treated A549 cells; format: cell-based, human; details: A549 cells pretreated 24 h (hemin 50 μM, ZnPP 1 μM), then NBD-P5 10 μM 2 h, confocal imaging
Experimental: (§1) 37°C for 24 h. Cells were treated with 50 μM hemin, 1 μM ZnPP or DMSO. […]
A549 cells (8×10^3 cells per well) were seeded into confocal dish and incubated in a CO2 incubator at 37°C for 24 h. Cells were treated with 50 μM hemin, 1 μM ZnPP or DMSO. After 24 h incubation, 10 μM NBD-P 5 was added and incubated with the cells for 2 h. The cells were then fixed with 4% polyoxymethylene for 20 min. Afterwards, the nuclei were stained using DAPI for 20 min.
Fluorescence images were measured by ZEISS LSM 980 with Airyscan 2 confocal laser scanning

[2] = tested on: HO-1 expression in A549 cells; assay: HO-1 ELISA of treated A549 cells; format: cell-based, human; details: 24 h, HO-1 ELISA kit, versus DMSO control
Experimental: 7. Enzyme linked immunosorbent assay (ELISA)
A549 cells (8×10^3 cells per well) were seeded in 6-well plates and incubated in a CO2 incubator at 37°C for 24 h. Cells were treated with 50 μM hemin, 1 μM ZnPP or DMSO. After 24 h incubation, cells were washed with PBS, lysed with NP-40 buffer containing 1.0 mM PMSF, followed by centrifugation (12000 rpm, 5 min) to harvest the supernatant. The assay was carried out by strictly following instructions provided. Absorbance at 450 nm was recorded using the BioTek Synergy-2 Microplate Reader to calculate the HO-1 concentration under different treatments. […]
(§2) 37°C for 24 h. Cells were treated with 50 μM hemin, 1 μM ZnPP or DMSO. After 24 h incubation, 10 μM NBD-P 5 was added and incubated with the cells for 2 h. The cells were then fixed with 4% polyoxymethylene for 20 min. Afterwards, the nuclei were stained using DAPI for 20 min. […]

[3] = target: T1, recombinant HO-1 protein with a 6xHis tag (Homo sapiens, UniProt P09601); assay: Luminescence titration of NBD-Pn with HO-1; format: binding; details: 4.5 μM HO-1, 2 μM probe, pH 7.4 PBS, λex = 475 nm; for increase in fluorescence intensity on addition of HO-1: emission at 526 nm, measured within 1 min
T1 construct: 6xHis
T1 sequence (P09601 1-288): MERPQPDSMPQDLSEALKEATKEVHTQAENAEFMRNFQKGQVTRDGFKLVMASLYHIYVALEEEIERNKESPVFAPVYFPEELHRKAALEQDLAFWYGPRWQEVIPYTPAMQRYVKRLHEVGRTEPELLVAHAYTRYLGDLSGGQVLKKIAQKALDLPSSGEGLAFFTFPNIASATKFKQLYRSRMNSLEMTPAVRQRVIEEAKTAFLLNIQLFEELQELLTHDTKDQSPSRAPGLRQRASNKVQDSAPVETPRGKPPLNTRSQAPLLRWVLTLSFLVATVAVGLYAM
Experimental: (§3) 4. Photophysical measurements
(§4) All spectra were measured using a stock solution of the probes (1 mM in DMSO) which was diluted with pH 7.4 PBS buffer to the desired concentration. […]
All measurements were conducted using a 700 μL quartz cuvette and within a minute after addition of the analyte. […]

[4] = target: bovine serum albumin (BSA) (Bos taurus, UniProt P02769); assay: Selectivity assay, emission with BSA; format: binding; details: 4.5 μM BSA, 2 μM probe, pH 7.4 PBS, emission at 526 nm
bovine serum albumin (BSA), sequence (P02769 25-607): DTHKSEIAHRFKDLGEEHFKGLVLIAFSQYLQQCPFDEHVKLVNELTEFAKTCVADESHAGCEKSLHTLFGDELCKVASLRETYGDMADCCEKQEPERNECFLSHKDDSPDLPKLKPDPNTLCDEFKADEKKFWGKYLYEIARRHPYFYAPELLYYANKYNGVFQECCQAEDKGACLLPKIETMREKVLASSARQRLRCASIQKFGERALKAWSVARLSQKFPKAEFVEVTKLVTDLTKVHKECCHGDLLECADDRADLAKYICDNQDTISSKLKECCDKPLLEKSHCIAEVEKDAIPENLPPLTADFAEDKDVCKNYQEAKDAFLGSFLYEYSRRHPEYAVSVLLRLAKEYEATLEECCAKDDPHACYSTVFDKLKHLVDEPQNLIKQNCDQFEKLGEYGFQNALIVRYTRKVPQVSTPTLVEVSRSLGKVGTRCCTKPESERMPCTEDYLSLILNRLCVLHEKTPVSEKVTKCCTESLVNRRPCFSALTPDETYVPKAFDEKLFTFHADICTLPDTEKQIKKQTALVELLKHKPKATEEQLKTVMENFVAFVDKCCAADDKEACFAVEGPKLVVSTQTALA
Experimental: as §3, §4
(§5) Selectivity assay was performed by measuring emission of NBD-Pn in pH 7.4 PBS buffer in presence of varying analytes including HO-1, common proteins, amino acids, and biologically relevant ions. All measurements were conducted using a 700 μL quartz cuvette and within a minute after addition of the analyte. […]

[5] = target: human serum albumin (HSA) (Homo sapiens, UniProt P02768); assay: Selectivity assay, emission with HSA; format: binding; details: 4.5 μM HSA, 2 μM probe, pH 7.4 PBS, emission at 526 nm
human serum albumin (HSA), sequence (P02768 25-609): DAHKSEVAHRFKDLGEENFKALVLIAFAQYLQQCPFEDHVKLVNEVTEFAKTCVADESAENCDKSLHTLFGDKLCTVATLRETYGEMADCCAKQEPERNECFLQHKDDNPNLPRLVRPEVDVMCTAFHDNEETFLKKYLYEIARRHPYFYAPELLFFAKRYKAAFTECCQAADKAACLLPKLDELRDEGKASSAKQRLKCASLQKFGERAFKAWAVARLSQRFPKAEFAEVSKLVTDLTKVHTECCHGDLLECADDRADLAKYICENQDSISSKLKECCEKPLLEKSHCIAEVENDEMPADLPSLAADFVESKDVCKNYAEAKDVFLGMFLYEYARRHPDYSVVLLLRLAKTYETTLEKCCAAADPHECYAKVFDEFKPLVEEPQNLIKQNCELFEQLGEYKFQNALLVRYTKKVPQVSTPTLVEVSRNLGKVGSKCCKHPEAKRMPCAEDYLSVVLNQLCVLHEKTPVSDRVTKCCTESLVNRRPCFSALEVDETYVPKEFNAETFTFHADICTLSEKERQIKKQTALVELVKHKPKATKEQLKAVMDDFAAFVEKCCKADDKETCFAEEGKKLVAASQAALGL
Experimental: as §3, §4, §5

A549 cells [6] = assay: Colocalization experiment with organelle trackers; format: cell-based, human; details: 10 μM probe 2 h
Experimental: 10. Colocalization experiment
A549 cells (8×10^3 cells per well) were seeded into confocal dish and incubated in a CO2 incubator at 37°C for 24 h. After incubation with NBD-P5 (10 μM) for 2 h, cells were co-stained with ER-Tracker red (400 nM) for 20 min, Lyso-Tracker red (60 nM) for 30 min, or Mito-Tracker red (50 nM) for 30 min. Fluorescence images were measured by ZEISS LSM 980 with Airyscan 2 confocal laser scanning

A549 cells [7] = assay: Flow cytometry analysis of cellular uptake; format: cell-based, human; details: 10 μM, time course of 2.5 h
Experimental: as §1
8. Flow cytometry analysis
A549 cells were first seeded into 12-well plates (1.0 × 10^5 cells/well) and incubated overnight to achieve adherence. Then, 10 μM NBD-P 5 was added, and incubated for different times. The cells were washed twice with cold PBS and harvested by trypsinization, followed by centrifugation (1500 x g, 5.0 min). The obtained cells were re-suspended in PBS and analyzed using flow cytometry (BD […]
as §2

HO-1 expression = details: study by Fang and co-workers; cited from earlier work
NBD-P5 = target: T2, NBD-P5; assay: other fluorescence titration; emission of the NBD probe (2 uM, ex 475 nm, read at 526 nm) on addition of protein in solution (HO-1 in increasing concentrations up to 4.5 uM; HSA, BSA at 4.5 uM); measured within a minute after addition; details: both partners purified
T2 construct: also called YWFYR-CONH2; NBD-Pn (n = 5); source: synthetic peptide, NBD-Ahx coupled with PyBOP, TFA cleavage, reversed-phase HPLC
T2 peptide: {NBD-Ahx}-YWFYR-NH2

NBD-P4 = target: T3, NBD-P4; assay: as above; details: both partners purified
T3 construct: caveolin-1 residues Y97-Y100 (the pentapeptide without arginine 101); also called YWFY-CONH2; NBD-Pn (n = 4); source: synthetic peptide, NBD-Ahx coupled with PyBOP, TFA cleavage, reversed-phase HPLC
T3 peptide: {NBD-Ahx}-YWFY-NH2

C=CC1=C(C)c2cc3[n-]c(cc4[n-]c(cc5nc(cc1n2)C(C)=C5C=C)c(C)c4CCC(=O)O)c(CCC(=O)O)c3C.[Zn+2] [ZnPP, zinc(II) protoporphyrin]
NBD-P5 fluorescence in treated cells compared with control cells [1]: relatively weaker fluorescence signal
HO-1 level relative to DMSO control ([2]; 1 μM): 0.89 fold

N=C(N)NCCC[C@H](NC(=O)[C@H](Cc1ccc(O)cc1)NC(=O)[C@H](Cc1ccccc1)NC(=O)[C@H](Cc1c[nH]c2ccccc12)NC(=O)[C@H](Cc1ccc(O)cc1)NC(=O)CCCCCNc1ccc([N+](=O)[O-])c2nonc12)C(N)=O [NBD-P5] (HELM PEPTIDE1{[O=[N+]([O-])c1ccc([*:2])c2nonc12].[O=C(CCCCCN[*:1])[*:2]].Y.W.F.Y.R.[am]}$$$$V2.0)
blue shift in fluorescence wavelength maxima on addition of HO-1 [3]: 24 nm
increase in fluorescence intensity on addition of HO-1 [3]: 9 fold
fluorescence change on addition of BSA [4]: small fluorescence increase
fluorescence change on addition of HSA [5]: small fluorescence increase
Pearson's correlation coefficient with ER-Tracker red (A549 cells [6]; ER-Tracker red 400 nM 20 min, ImageJ): 0.97
colocalization with either Lyso-Tracker or Mito-Tracker (A549 cells [6]; Lyso-Tracker red 60 nM or Mito-Tracker red 50 nM 30 min): not as significant as that with ER-Tracker
uptake by A549 cells (A549 cells [7]): increased rapidly in the first 1 h

CC(C)(C)c1cc(O)ccc1O [tBHQ]
upregulation of HO-1 (HO-1 expression): about 1.6 fold

NC(=O)[C@H](Cc1ccc(O)cc1)NC(=O)[C@H](Cc1ccccc1)NC(=O)[C@H](Cc1c[nH]c2ccccc12)NC(=O)[C@H](Cc1ccc(O)cc1)NC(=O)CCCCCNc1ccc([N+](=O)[O-])c2nonc12 [NBD-P4] (HELM PEPTIDE1{[O=[N+]([O-])c1ccc([*:2])c2nonc12].[O=C(CCCCCN[*:1])[*:2]].Y.W.F.Y.[am]}$$$$V2.0)
increase in fluorescence intensity on addition of HO-1 [3]: 6 fold

hemin
NBD-P5 fluorescence in treated cells compared with control cells [1]: significantly stronger green fluorescence
upregulation of HO-1 expression ([2]; 50 μM): around 1.53 fold

B1: Heme oxygenase-1 (enzyme)
chain: T1 sequence (P09601 1-288)
fold increase in fluorescence intensity of the probe with 4.5 uM HO-1 (NBD-P5): 9 fold
fold increase in fluorescence intensity of the probe with HO-1 (NBD-P4): 6 fold
